# Measured values as given in article PMC6199744, “Development of Chemical Proteomics for the Folateome and Analysis of the Kinetoplastid Folateome” (ACS Infectious Diseases, 2018).
# Several values for one entry are separate records, joined by “and”; a condition that tells them apart may be missing. Identical values can stand only once. Like-named read-outs stand apart in the source and are kept apart here.
# System: T. brucei lysate proteins
# Type: binding, Trypanosoma brucei
compound,measurement,setting,value
CCCCCCOc1ccc(Cc2cnc(N)nc2N)cc1 [compound 1],fold change - vehicle control,,0.84 and 0.54 and 0.72 and 0.9 and 0.79
same,fold change - vehicle control,protein RHS6A (CZT00028360.1),0.94
same,fold change - vehicle control,"protein TB09.160.1250 HY[…], CONSERVED",0.85
same,fold change - vehicle control,"protein TB09.160.3670 RIBOSOMAL PROTEIN S6, PUTATIVE",0.92
same,fold change - vehicle control,"protein TB09.211.2630 60S RIBOSOMAL PROTEIN L23, PUTATIVE",1
same,fold change - vehicle control,protein TB09.211.4513 KIN[…] PROTEIN KMP-11,0.73
same,fold change - vehicle control,protein TB11.V4.0005 RIBONUCLEOSIDE-DIPHOSPHATE REDUCTASE SMALL CHAIN,0.92
same,fold change - vehicle control,"protein TB11.01.0870 R[…] A, 51KDA SUBUNIT, PUTATIVE",0.98
same,fold change - vehicle control,"protein TB11.01.2560 40S RIBOSOMAL PROTEIN SA, PUTATIVE",1.02
same,fold change - vehicle control,"protein TB11.01.4880 HY[…], CONSERVED",0.77
same,fold change - vehicle control,"protein TB11.01.7090 HY[…], CONSERVED",0.93
same,fold change - vehicle control,protein TB11.02.2510 GUANINE NUCLEOTIDE-BINDING BETA SUBUNIT-LIKE PROTEIN,0.93
same,fold change - vehicle control,"protein TB11.02.4170 40S RIBOSOMAL PROTEIN S5, PUTATIVE",1.3
same,fold change - vehicle control,protein TB11.03.0250 C[…],1.42
same,fold change - vehicle control,"protein TB11.46.0009 HY[…], CONSERVED",0.95
same,fold change - vehicle control,"protein TB427TMP.01.1475 40S RIBOSOMAL PROTEIN S27, PUTATIVE",0.92
same,fold change - vehicle control,"protein TB427TMP.01.4280 HY[…], CONSERVED",1.08
same,fold change - vehicle control,"protein TB427TMP.01.4650 HY[…], CONSERVED",0.58
same,fold change - vehicle control,"protein TB427TMP.01.4810 HY[…], CONSERVED",0.83
same,fold change - vehicle control,"protein TB427TMP.01.5680 HY[…], CONSERVED",0.33
same,fold change - vehicle control,"protein TB427TMP.01.8390 HY[…], CONSERVED",0.87
same,fold change - vehicle control,"protein TB427TMP.02.0230 HY[…], CONSERVED",1.01
same,fold change - vehicle control,protein TB427TMP.02.0460 NUCLEOPORIN,0.92
same,fold change - vehicle control,protein TB427TMP.02.1106 NUCLEOBASE/NUCLEOSIDE TRANSPORTER 8 1,1.06
same,fold change - vehicle control,"protein TB427TMP.160.2050 ENDO-BETA-N-ACETYLGLUCOSAMINIDASE, PUTATIVE",0.79
same,fold change - vehicle control,protein TB427TMP.160.4310 GLUTAMATE DEHYDROGENASE,1.16
same,fold change - vehicle control,"protein TB427TMP.160.4450 40S RIBOSOMAL PROTEIN S3, PUTATIVE",1
same,fold change - vehicle control,"protein TB427TMP.160.4630 HY[…], CONSERVED",0.8
same,fold change - vehicle control,"protein TB427TMP.160.5200 HY[…], CONSERVED",0.67
same,fold change - vehicle control,"protein TB427TMP.160.5670 HY[…], CONSERVED",0.21
same,fold change - vehicle control,protein TB427TMP.211.0930 POLYADENYLATE-BINDING PROTEIN 1,1.23
same,fold change - vehicle control,"protein TB427TMP.211.1750 MIT[…] PROTEIN, PUTATIVE",0.86
same,fold change - vehicle control,"protein TB427TMP.211.3510 ATP-DEPENDENT DEAD/H RNA HELICASE, PUTATIVE",0.97
same,fold change - vehicle control,"protein TB427TMP.211.4540 RNA-BINDING PROTEIN, PUTATIVE",0.71
same,fold change - vehicle control,"protein TB427TMP.244.2840 HY[…], CONSERVED",0.64
same,fold change - vehicle control,"protein TB427.01.1240 CYTIDINE TR[…], PUTATIVE",0.67
same,fold change - vehicle control,protein TB427.01.2570 COATOMER BETA SUBUNIT,0.88
same,fold change - vehicle control,"protein TB427.01.3910 HY[…], CONSERVED",0.83
same,fold change - vehicle control,protein TB427.02.6240,0.95
same,fold change - vehicle control,"protein TB427.04.3350 HY[…], CONSERVED",1.02
same,fold change - vehicle control,"protein TB427.04.3890 ATP-DEPENDENT RNA HELICASE, PUTATIVE",0.9
same,fold change - vehicle control,"protein TB427.04.4870 AMINO ACID TRANSPORTER, PUTATIVE",0.86
same,fold change - vehicle control,"protein TB427.04.750 50S RIBOSOMAL PROTEIN L7AE, PUTATIVE",0.67
same,fold change - vehicle control,"protein TB427.04.960 HY[…], CONSERVED",0.68
same,fold change - vehicle control,"protein TB427.05.1780 HY[…], CONSERVED",0.66
same,fold change - vehicle control,"protein TB427.05.3030 INTR[…] PROTEIN IFT122, PUTATIVE",0.78
same,fold change - vehicle control,"protein TB427.05.4560 GUANINE DEAMINASE, PUTATIVE",1.07
same,fold change - vehicle control,"protein TB427.06.2150 CELL DIVISION CYCLE PROTEIN 16, PUTATIVE",0.92
same,fold change - vehicle control,"protein TB427.06.3110 PROTEIN KINASE, PUTATIVE (CRK11)",1.03
same,fold change - vehicle control,"protein TB427.06.5110 DAMAGE-SPECIFIC DNA BINDING PROTEIN, PUTATIVE",0.86
same,fold change - vehicle control,"protein TB427.07.2670 HY[…], CONSERVED",0.89
same,fold change - vehicle control,"protein TB427.07.3040 HY[…], CONSERVED",0.9
same,fold change - vehicle control,"protein TB427.07.3530 HY[…], CONSERVED",0.96
same,fold change - vehicle control,"protein TB427.07.4970 GLUTAMINE SYNTHETASE, PUTATIVE",0.89
same,fold change - vehicle control,"protein TB427.07.5560 GLUCOSAMINE-FRUCTOSE-6-PHOSPHATE AMINOTRANSFERASE, PUTATIVE",0.77
same,fold change - vehicle control,"protein TB427.07.5890 HY[…], CONSERVED",0.86
same,fold change - vehicle control,"protein TB427.07.7070 HY[…], CONSERVED",0.72
same,fold change - vehicle control,"protein TB427.07.7460 HY[…], CONSERVED",0.81
same,fold change - vehicle control,"protein TB427.08.1500 HY[…], CONSERVED",0.87
same,fold change - vehicle control,"protein TB427.08.1840 HY[…], CONSERVED",1.24
same,fold change - vehicle control,"protein TB427.08.1960 HY[…], CONSERVED",0.78
same,fold change - vehicle control,"protein TB427.08.2080 HY[…], CONSERVED",0.67
same,fold change - vehicle control,"protein TB427.08.3750 NUCLEOLAR PROTEIN, PUTATIVE",0.89
same,fold change - vehicle control,"protein TB427.08.6390 LYSOPHOSPHOLIPASE, PUTATIVE",0.97
same,fold change - vehicle control,"protein TB427.10.10610 PROTEIN TYROSINE PHOSPHATASE, PUTATIVE",0.62
same,fold change - vehicle control,"protein TB427.10.1100 60S RIBOSOMAL PROTEIN L9, PUTATIVE",1.06
same,fold change - vehicle control,protein TB427.10.12740,0.9
same,fold change - vehicle control,"protein TB427.10.14660 HY[…], CONSERVED",0.83
same,fold change - vehicle control,protein TB427.10.15720 […]-ATP-ASE SUBUNIT 9,0.9
same,fold change - vehicle control,protein TB427.10.2440 METACASPASE MCA4,0.84
same,fold change - vehicle control,"protein TB427.10.2900 IMPORTIN BETA-1 SUBUNIT, PUTATIVE",0.68
same,fold change - vehicle control,"protein TB427.10.3470 HY[…], CONSERVED",0.78
same,fold change - vehicle control,protein TB427.10.4110 60S RIBOSOMAL PROTEIN L30,0.82
same,fold change - vehicle control,"protein TB427.10.4610 […]-MANNOSE SYNTHASE, PUTATIVE",0.82
same,fold change - vehicle control,"protein TB427.10.5250 HY[…], CONSERVED",0.86
same,fold change - vehicle control,"protein TB427.10.7410 SUCCINYL-COA LIGASE GDP-FORMING] BETA-CHAIN, PUTATIVE",0.9
same,fold change - vehicle control,protein TB927.10.12960 RAS-RELATED PROTEIN RAB-5,0.82
same,fold change - vehicle control,"protein TB927.10.14800 PROTEIN KINASE, PUTATIVE",1.18
same,fold change - vehicle control,protein TB927.10.2980 […]-ATPASE SUBUNIT 11,0.83
same,fold change - vehicle control,protein TB927.10.3660 ASPARTATE AMINOTRANSFERASE,1.14
same,fold change - vehicle control,protein TB927.10.4570 […] 2,0.72
same,fold change - vehicle control,"protein TB927.10.5140 PROTEIN KINASE, PUTATIVE",0.83
same,fold change - vehicle control,"protein TB927.10.560 40S RIBOSOMAL PROTEINS S11, PUTATIVE",0.94
same,fold change - vehicle control,"protein TB927.10.6510 CHAPERONIN HSP60, MIT[…]",0.87
same,fold change - vehicle control,"protein TB927.3.1840 3-OXO-5-ALPHA-STEROID 4-DEHYDROGENASE, PUTATIVE",1
same,fold change - vehicle control,protein TB927.3.3780 TRYPAREDOXIN,0.82
same,fold change - vehicle control,"protein TB927.3.740 HY[…], CONSERVED",0.83
same,fold change - vehicle control,"protein TB927.4.2740 HY[…], CONSERVED",0.74
same,fold change - vehicle control,"protein TB927.4.3590 T[…] 1-BETA, PUTATIVE",0.85
same,fold change - vehicle control,"protein TB927.6.4320 HY[…], CONSERVED",0.84
same,fold change - vehicle control,protein TB927.7.2550 […] SUBUNIT 5,0.7
same,fold change - vehicle control,"protein TB927.7.2980 HY[…], CONSERVED",0.84
same,fold change - vehicle control,"protein TB927.7.7430 ATP SYNTHASE ALPHA CHAIN, MIT[…]",0.73
same,fold change - vehicle control,protein TB927.8.1990 PEROXIDOXIN,0.74
same,fold change - vehicle control,"protein TB927.8.4720 AMINO ACID TRANSPORTER, PUTATIVE",1.08
same,fold change - vehicle control,"protein TB927.8.890 SMALL GTP-BINDING PROTEIN RAB1, PUTATIVE",0.93
